Measured values reported in ChEMBL document CHEMBL1781944, “The discovery of novel benzofuran-2-carboxylic acids as potent Pim-1 inhibitors” (Bioorg Med Chem Lett, 2011).
In brackets after ≈: the same amount, converted by molar mass. Activity calls are given as the source filed them. The calls are words filed in the database; no cut-off is given here.

Legend:
[1] = biological target: Serine/threonine-protein kinase pim-2 (Homo sapiens, UniProt Q9P1W9)
[2] = biological target: T1, Serine/threonine-protein kinase pim-1 (Homo sapiens, UniProt P11309)
Target sequence in this assay (P11309 whole entry): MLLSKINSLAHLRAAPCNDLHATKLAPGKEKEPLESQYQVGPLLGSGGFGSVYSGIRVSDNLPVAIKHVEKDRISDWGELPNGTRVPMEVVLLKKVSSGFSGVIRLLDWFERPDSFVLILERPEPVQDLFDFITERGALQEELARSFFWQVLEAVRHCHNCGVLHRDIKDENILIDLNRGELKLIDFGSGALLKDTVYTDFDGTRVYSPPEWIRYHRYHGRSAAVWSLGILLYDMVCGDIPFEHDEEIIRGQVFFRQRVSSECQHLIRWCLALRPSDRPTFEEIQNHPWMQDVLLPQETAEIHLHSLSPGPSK

Cytochrome P450 2C9 = Cytochrome P450 2C9 (Homo sapiens, UniProt P11712); assay: Inhibition of CYP2C9 in human liver microsomes; assay type: ADME, Microsome
Cytochrome P450 2C19 = Cytochrome P450 2C19 (Homo sapiens, UniProt P33261); assay: Inhibition of CYP2C19 in human liver microsomes; assay type: ADME, Microsome
Cytochrome P450 3A4 = Cytochrome P450 3A4 (Homo sapiens, UniProt P08684); assay: Inhibition of CYP3A4 in human liver microsomes; assay type: ADME, Microsome
[3] = Solubility of the compound in phosphate buffered saline buffer at pH 7.4; assay type: physicochemical
Cytochrome P450 1A2 = biological target: T2, Cytochrome P450 1A2 (Homo sapiens, UniProt P05177); assay: Inhibition of CYP1A2 in human liver microsomes; assay type: ADME, Microsome
T2 sequence (P05177 whole entry): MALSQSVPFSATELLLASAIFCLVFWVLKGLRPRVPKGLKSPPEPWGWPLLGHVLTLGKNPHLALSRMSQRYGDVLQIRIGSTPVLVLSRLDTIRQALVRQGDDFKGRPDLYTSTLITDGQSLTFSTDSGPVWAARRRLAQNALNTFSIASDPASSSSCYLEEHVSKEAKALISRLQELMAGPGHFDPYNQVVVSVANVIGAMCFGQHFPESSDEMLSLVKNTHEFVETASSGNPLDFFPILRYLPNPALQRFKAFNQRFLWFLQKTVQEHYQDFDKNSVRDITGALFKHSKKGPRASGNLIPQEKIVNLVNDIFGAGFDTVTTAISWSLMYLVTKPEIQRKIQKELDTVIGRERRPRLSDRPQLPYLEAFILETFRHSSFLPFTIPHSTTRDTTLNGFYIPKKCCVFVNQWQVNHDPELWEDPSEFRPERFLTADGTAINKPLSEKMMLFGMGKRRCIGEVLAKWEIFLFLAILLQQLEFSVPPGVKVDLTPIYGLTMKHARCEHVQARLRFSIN

in vitro = conditions: human, liver microsomes
Cytochrome P450 2D6 = Cytochrome P450 2D6 (Homo sapiens, UniProt P10635); assay: Inhibition of CYP2D6 in human liver microsomes; assay type: ADME, Microsome
[4] = Intrinsic clearance in rat liver microsomes; assay type: ADME, Microsome
[5] = biological target: T1, Serine/threonine-protein kinase pim-1; conditions: 25 uM
Target sequence in this assay (P11309 whole entry, looked up): as the sequence (P11309 whole entry) above

Chain of Cytochrome P450 2D6 (P10635 whole entry): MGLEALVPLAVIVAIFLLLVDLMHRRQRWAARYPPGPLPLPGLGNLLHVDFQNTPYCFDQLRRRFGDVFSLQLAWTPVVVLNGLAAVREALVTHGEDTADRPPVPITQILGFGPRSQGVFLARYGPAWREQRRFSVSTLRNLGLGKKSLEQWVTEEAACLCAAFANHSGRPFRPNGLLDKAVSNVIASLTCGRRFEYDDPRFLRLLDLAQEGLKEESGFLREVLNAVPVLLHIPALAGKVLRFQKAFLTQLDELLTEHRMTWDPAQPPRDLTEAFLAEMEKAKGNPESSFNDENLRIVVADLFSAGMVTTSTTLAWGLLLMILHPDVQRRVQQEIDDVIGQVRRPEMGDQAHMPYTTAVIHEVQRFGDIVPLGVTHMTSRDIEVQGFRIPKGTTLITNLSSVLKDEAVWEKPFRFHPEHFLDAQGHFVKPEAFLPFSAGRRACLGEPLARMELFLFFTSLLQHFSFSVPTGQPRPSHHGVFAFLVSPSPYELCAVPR
Chain of Cytochrome P450 3A4 (P08684 whole entry): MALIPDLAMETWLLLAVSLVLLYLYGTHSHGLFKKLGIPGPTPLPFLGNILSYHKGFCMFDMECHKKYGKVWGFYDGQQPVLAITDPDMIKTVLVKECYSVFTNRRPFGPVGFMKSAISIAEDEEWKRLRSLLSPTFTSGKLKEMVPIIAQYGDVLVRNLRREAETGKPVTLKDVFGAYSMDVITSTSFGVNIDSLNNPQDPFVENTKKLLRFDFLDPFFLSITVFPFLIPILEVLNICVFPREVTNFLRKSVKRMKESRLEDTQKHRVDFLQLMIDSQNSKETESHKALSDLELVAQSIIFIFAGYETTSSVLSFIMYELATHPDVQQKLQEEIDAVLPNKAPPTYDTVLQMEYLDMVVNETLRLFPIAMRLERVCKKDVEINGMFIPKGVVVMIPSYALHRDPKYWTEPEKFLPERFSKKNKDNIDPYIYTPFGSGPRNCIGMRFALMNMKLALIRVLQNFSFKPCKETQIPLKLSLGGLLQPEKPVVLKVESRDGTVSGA
Chain of Serine/threonine-protein kinase pim-2 (Q9P1W9 whole entry): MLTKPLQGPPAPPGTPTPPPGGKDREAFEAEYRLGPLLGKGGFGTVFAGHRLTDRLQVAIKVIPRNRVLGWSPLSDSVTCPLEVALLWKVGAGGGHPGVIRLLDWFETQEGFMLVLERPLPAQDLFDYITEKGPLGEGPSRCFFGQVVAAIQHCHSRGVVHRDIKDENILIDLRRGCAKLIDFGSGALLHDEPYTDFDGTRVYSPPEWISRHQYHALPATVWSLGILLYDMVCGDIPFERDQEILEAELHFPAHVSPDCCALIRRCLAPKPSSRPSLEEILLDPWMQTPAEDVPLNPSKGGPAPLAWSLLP
Chain of Cytochrome P450 2C9 (P11712 whole entry): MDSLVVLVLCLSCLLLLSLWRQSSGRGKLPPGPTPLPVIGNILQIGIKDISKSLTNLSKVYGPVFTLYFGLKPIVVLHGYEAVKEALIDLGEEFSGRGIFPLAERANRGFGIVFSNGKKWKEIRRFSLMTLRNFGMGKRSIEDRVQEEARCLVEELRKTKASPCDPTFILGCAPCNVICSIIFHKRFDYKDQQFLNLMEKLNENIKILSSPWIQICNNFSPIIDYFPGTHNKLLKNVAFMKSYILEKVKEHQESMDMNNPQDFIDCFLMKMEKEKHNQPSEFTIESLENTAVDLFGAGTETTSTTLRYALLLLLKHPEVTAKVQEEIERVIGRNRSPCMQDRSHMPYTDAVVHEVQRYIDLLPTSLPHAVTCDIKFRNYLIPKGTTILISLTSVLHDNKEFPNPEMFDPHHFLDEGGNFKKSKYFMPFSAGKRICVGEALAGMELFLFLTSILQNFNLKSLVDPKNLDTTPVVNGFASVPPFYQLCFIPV
Chain of Cytochrome P450 2C19 (P33261 whole entry): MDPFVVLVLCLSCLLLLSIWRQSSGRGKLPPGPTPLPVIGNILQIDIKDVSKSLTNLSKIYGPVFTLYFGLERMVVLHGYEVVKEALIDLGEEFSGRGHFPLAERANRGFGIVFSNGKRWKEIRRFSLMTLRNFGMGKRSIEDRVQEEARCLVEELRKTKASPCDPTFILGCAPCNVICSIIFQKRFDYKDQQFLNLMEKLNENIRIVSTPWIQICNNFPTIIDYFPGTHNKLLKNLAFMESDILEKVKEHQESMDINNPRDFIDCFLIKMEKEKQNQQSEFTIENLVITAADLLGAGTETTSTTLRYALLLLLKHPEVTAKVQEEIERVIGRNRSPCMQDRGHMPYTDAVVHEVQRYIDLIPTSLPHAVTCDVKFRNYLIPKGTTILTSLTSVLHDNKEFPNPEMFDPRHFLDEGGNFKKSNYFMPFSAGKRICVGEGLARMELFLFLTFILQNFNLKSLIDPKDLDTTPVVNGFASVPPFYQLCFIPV

Structure (SMILES)	IC50 [1] [nM]	IC50 [2] [nM]	other results
O=C(O)c1cc2cc(-c3cnccn3)ccc2o1	11900	7400	–
O=C(O)c1cc2cc(-c3cncc(NC4CCNCC4)n3)ccc2o1	150	210	–
O=C(O)c1cc2cc(Br)cc(N[C@H]3CC[C@H](O)CC3)c2o1	6100	2400	–
O=C(O)c1cc2cc(Br)cc(OCC3CCCNC3)c2o1 (configuration not stated)	350	71	–
O=C(O)c1cc2cc(Br)cc(NCC3CCNCC3)c2o1	190	20	IC50 (Cytochrome P450 2C9): > 10000 nM; IC50 (Cytochrome P450 2C19): > 10000 nM; IC50 (Cytochrome P450 3A4): > 10000 nM; solubility [3]: > 58 µg/mL; IC50 (Cytochrome P450 1A2): > 10000 nM; microsomal CLint (in vitro): 9.9 µL/min/mg; IC50 (Cytochrome P450 2D6): > 10000 nM; microsomal CLint [4]: 14.1 µL/min/mg
NC[C@H]1CC[C@H](Nc2cncc(-c3ccc4oc(C(=O)O)cc4c3)n2)CC1	21	53	–
O=C(O)c1cc2cc(Br)cc(OCCc3ccncc3)c2o1	21100	4500	–
O=C(O)c1cc2cc(Br)cc(C(=O)NCC3CCNCC3)c2o1	1300	2700	–
N[C@H]1CC[C@@H](Nc2cc(Br)cc3cc(C(=O)O)oc23)CC1	4	–	IC50 (Cytochrome P450 2C9): > 10000 nM; IC50 (Cytochrome P450 2C19): > 10000 nM; IC50 (Cytochrome P450 3A4): > 10000 nM; solubility [3]: 20.1 µg/mL (≈ 56.9 µM); IC50 (Cytochrome P450 1A2): > 10000 nM; microsomal CLint (in vitro): 10.2 µL/min/mg; IC50 (Cytochrome P450 2D6): > 10000 nM; microsomal CLint [4]: 10 µL/min/mg
NCCCCNc1nccc(-c2ccc3oc(C(=O)O)cc3c2)n1	590	460	–
O=C(O)c1cc2cc(Br)cc(OCC3CCNCC3)c2o1	250	60	–
O=C(O)c1cc2cc(-c3cccnc3)ccc2o1	7100	7800	–
N[C@H]1CC[C@H](Nc2cc(Br)cc3cc(C(=O)O)oc23)CC1	66	–	IC50 (Cytochrome P450 2C9): > 10000 nM; IC50 (Cytochrome P450 2C19): > 10000 nM; IC50 (Cytochrome P450 3A4): > 10000 nM; solubility [3]: > 58 µg/mL; IC50 (Cytochrome P450 1A2): > 10000 nM; microsomal CLint (in vitro): 11.2 µL/min/mg; IC50 (Cytochrome P450 2D6): > 10000 nM; microsomal CLint [4]: 8.1 µL/min/mg
O=C(O)c1cc2ccccc2o1	–	119000	–
O=C(O)c1cc2cc(-c3cnn(C4CCNCC4)c3)ccc2o1	5800	6000	–
O=C(O)c1cc2cc(OC(F)(F)F)ccc2o1	–	6100	–

Structure (SMILES)	IC50 [1] [nM]	IC50 [2] [nM]	other results
O=C(O)c1cc2cc(Br)cc(NCCC3CCNCC3)c2o1	540	40	–
NCCCCNc1ccnc(-c2ccc3oc(C(=O)O)cc3c2)n1	1200	1900	–
N[C@H]1CC[C@H](Nc2cncc(-c3ccc4oc(C(=O)O)cc4c3)n2)CC1	54	–	–
O=C(O)c1cc2cc(Br)cc(OCc3ccncc3)c2o1	12500	4900	–
O=C(O)c1cc2cc(Br)cc(NC(=O)C3CCNCC3)c2o1	260	150	–
N[C@H]1CC[C@@H](Nc2cncc(-c3ccc4oc(C(=O)O)cc4c3)n2)CC1	110	200	–
O=C(O)c1cc2cc(-c3cncc(NC4CNC4)n3)ccc2o1	100	450	–
COc1cc(Br)cc2cc(C#N)oc12	–	–	inhibition [5]: inactive
O=C(CC1CCNCC1)Nc1cc(Br)cc2cc(C(=O)O)oc12	340	55	–
O=C(O)c1cc2cc(Br)cc(OCC(=O)N3CCNCC3)c2o1	1300	220	–
O=C(O)c1cc2cc(-c3cncc(NCC4CCNCC4)n3)ccc2o1	160	380	–
O=C(O)c1cc2cc(Br)cc(OCCC3CCNCC3)c2o1	350	51	–
Cn1cc(-c2ccc3oc(C(=O)O)cc3c2)cn1	2900	5400	–
O=C(O)c1cc2cc(C(F)(F)F)ccc2o1	13500	5300	–
O=C(O)c1cc2cc(Br)cc(C(=O)NC3CCNCC3)c2o1	7000	980	–
O=C(O)c1cc2cc(Br)cc(N[C@H]3CC[C@@H](O)CC3)c2o1	6800	2300	–
